Results taken from patent US9109048B2, “Inhibition of tumor growth” (priority 1998, dated 2015).
Converted amounts (≈) assume the structure as drawn. Where two headings read alike, the source gives them in different places. Square brackets hold non-standard residues; d marks the D form. Ends that are not written are not given here. Peptide text beside a SMILES is read from it.

Key:
Assay type in all cases: cell-based
[1] = tested on: MRSA (methicillin resistant S. aureus)
Experimental: (§1) The bacterial strains used were: Escherichia coli ATCC 25922 and Staphylococcus aureus ATCC 25923. All strains were stored at −70° C. The bacteria were grown in 2% Bacto Peptone water (Difco 1807-17-4). All tests were performed with bacteria in mid-logarithmic growth phase. Determination of the minimum inhibitory concentration (MIC) of the peptides for bacterial strains were performed in 1% Bacto Peptone water. A standard microdilution technique with an inoculum of 2×10^6 CFU/ml was used. All assays were performed in triplets. Since the peptides are positively charged and therefore could adhere to the plastic wells, we controlled the actual concentration of the peptides in the solution by HPLC. There was no difference between the concentration of the peptides before or after adding the solution to the plastic wells.
(§2) Table 15 below gives the antibacterial activity and toxicity data for some preferred peptides of the invention. MRSA is methicillin resistant S. aureus and MRSE is methicilin resistant S. epidermidis.

human red blood cells = assay: Hemolytic assay; conditions: red cells of human
Experimental: The hemolytic activities of the peptides were determined using fresh human red blood cells. 8 ml blood was taken from a healthy person. 4 ml blood was transferred to a polycarbonate tube containing heparin to a final concentration of 10 U/ml, and the remaining 4 ml blood was transferred to a glass tube containing EDTA with final concentration of 15% EDTA. The erythrocytes were isolated from heparin-treated blood by centrifugation in 1500 rpm for 10 min and washed three times with phosphate-buffered saline (PBS) to remove plasma and buffy coat. The cell pellet was resuspended in PBS to make the final volume of 4 ml. The peptide was diluted to a concentration of 2 mg/ml and 0.1 mg/ml. The peptide was further diluted to the concentrations as stated in Table 1. For each tube PBS was added first, then RBCs and peptide solutions. The hematocrit in the blood treated with EDTA was determined after 30 min with Sysmex K-1000, and the resuspended RBCs were diluted into 10% hematocrit. RBCs in PBS (1%) with and without peptides (Table 18) were incubated in a shaker at 37° for 1 hour and then centrifuged at 4000 rpm for 5 min. The supernatant were carefully transferred to new polycarbonate tubes and the absorbance of the supernatant was measured at 540 nm. Baseline hemolysis was hemoglobin released in the presence of PBS, and 100% hemolysis was hemoglobin released in the presence of 0.1% Triton X-100.

[2] = tested on: Escherichia coli ATCC 25922; assay: MIC (minimum inhibitory concentration) test, microdilution
Method in brief: (§3)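 Strains are stored at −70° C, grown to mid-logarithmic phase in 2% Bacto Peptone water, then exposed to peptides in 1% Bacto Peptone water by standard microdilution with 2×10^6 CFU/ml. Each assay runs in triplicate.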

[3] = tested on: Staphylococcus aureus ATCC 25923; assay: as above
Method in brief: as §3

[4] = tested on: human promyelotic leukemia cell line HL 60; assay: Cytotoxicity on HL 60 cells, MTT; conditions: FIG. 7, concentrations tested
Experimental: HL 60 cells, 1×10^4 were incubated with peptides 50, 30, 20, 10, 5, 1 μg, 1000-20 μg/ml in 2 hours and coloured with MTT;

[5] = tested on: MRSE (methicilin resistant S. epidermidis)
Experimental: as §1, §2

[6] = Table 1, synthetic lactoferricins

| Molecule | MIC MRSA ([1]; Table 15) | MIC MRSA ([1]; methicillin resistant) | EC 50 (toxicity, hemolysis) (human red blood cells) | MIC E. coli ([2]; ATCC 25922) | MIC E. coli ([2]; Table 15) | MIC S. aureus ([3]; Table 15) | MIC MRSE ([5]; methicilin resistant) | further results |
| --- | --- | --- | --- | --- | --- | --- | --- | --- |
| CSCC[C@H](NC(=O)[C@H](CCCNC(=N)N)NC(=O)[C@H](Cc1c[nH]c2ccccc12)NC(=O)[C@H](CCC(N)=O)NC(=O)[C@H](Cc1c(S(=O)(=O)c2c(C)c(C)c3c(c2C)CCC(C)(C)O3)[nH]c2ccccc12)NC(=O)[C@H](CCCNC(=N)N)NC(=O)[C@H](CCCNC(=N)N)NC(=O)[C@H](CSCNC(C)=O)NC(=O)[C@H](CCCCN)NC(=O)[C@@H](N)Cc1ccccc1)C(=O)N[C@@H](CCCCN)C(=O)N[C@@H](CCCCN)C(=O)N[C@@H](CC(C)C)C(=O)NCC(=O)N[C@@H](C)C(=O)O [LFB PMC6] | 2.5 µg/mL | 1.1 µM | >1000 µg/mL | 4.3 µM | 10.0 µg/mL | 2.5 µg/mL | – | MIC E. coli ([2]; Table 13): 10 µg/mL |
| CSCC[C@H](NC(=O)[C@H](CCCNC(=N)N)NC(=O)[C@H](Cc1c[nH]c2ccccc12)NC(=O)[C@H](C)NC(=O)[C@H](Cc1c[nH]c2ccccc12)NC(=O)[C@H](CCCNC(=N)N)NC(=O)[C@H](CCCNC(=N)N)NC(=O)[C@H](C)NC(=O)[C@H](CCCCN)NC(=O)[C@H](Cc1ccccc1)NC(=O)[C@H](Cc1c[nH]c2ccccc12)NC(=O)[C@H](C)NC(=O)[C@@H]1CCCN1)C(=O)N[C@@H](CCCCN)C(=O)N[C@@H](CCCCN)C(=O)N[C@@H](CC(C)C)C(=O)N[C@@H](C)C(=O)N[C@@H](C)C(=O)O [LFB 14-31 A2,6,10,17] | 5.0 µg/mL | 2.2 µM | >1000 µg/mL | 8.8 µM | 20.0 µg/mL | – | – | EC50 (human red blood cells): > 440 µM; MIC E. coli ([2]; Table 8): 20 µg/mL |
| CC[C@H](C)[C@H](NC(=O)[C@H](CO)NC(=O)[C@@H]1CCCN1C(=O)[C@H](C)NC(=O)CNC(=O)[C@H](CC(C)C)NC(=O)[C@H](CCCCN)NC(=O)[C@H](CCCCN)NC(=O)[C@H](CCSC)NC(=O)[C@H](CCCNC(=N)N)NC(=O)[C@H](Cc1c[nH]c2ccccc12)NC(=O)[C@H](CCC(N)=O)NC(=O)[C@H](Cc1c[nH]c2ccccc12)NC(=O)[C@H](CCCNC(=N)N)NC(=O)[C@H](CCCNC(=N)N)NC(=O)[C@H](CSCNC(C)=O)NC(=O)[C@H](CCCCN)NC(=O)[C@@H](N)Cc1ccccc1)C(=O)N[C@H](C(=O)N[C@@H](CSCNC(C)=O)C(=O)N[C@H](C(=O)N[C@@H](CCCNC(=N)N)C(=O)N[C@@H](CCCNC(=N)N)C(=O)N[C@@H](C)C(=O)N[C@@H](Cc1ccccc1)C(=O)O)C(C)C)[C@@H](C)O [LFB (17-41), reference compound] | – | – | – | – | – | – | – | cytotoxic effect on human HL 60 cells [4]: weak concentration dependant cytotoxic effect; Minimum inhibitory concentration (MIC) E. coli ATCC 25922 [2, 6]: 30 µg/mL (≈ 9.18 µM); Minimum inhibitory concentration (MIC) S. aureus ATCC 25923 [3, 6]: 30 µg/mL (≈ 9.18 µM) |
| C[C@@H](NC(=O)[C@H](Cc1c[nH]c2ccccc12)NC(=O)[C@H](CCCNC(=N)N)NC(=O)[C@H](Cc1c[nH]c2ccccc12)NC(=O)[C@@H](C)NC(=O)[C@@H](CCCNC(=N)N)NC(=O)[C@H](N)Cc1ccc(O)cc1)C(=O)N[C@@H](Cc1c[nH]c2ccccc12)C(=O)N[C@@H](CCCNC(=N)N)C(=O)N[C@@H](Cc1c[nH]c2ccccc12)C(=O)N[C@@H](CCCNC(=N)N)C(N)=O [SEQ ID NO: 34, tyr-arg-ala-TRP-ARG-TRP-ala-TRP-ARG-TRP-ARG-CONH2] (H-[dY][dR][dA]WRW[dA]WRWR-NH2; N-terminus assumed) | – | – | – | – | – | – | – | MIC MRSA ([1]; Table 16): 2.5 µg/mL; MIC E. coli ([2]; Table 16, peptides with D-amino acids): 7.5 µg/mL; MIC S. aureus ([3]; Table 16): 5 µg/mL |
| H-FKWRRWQWRMKKLWA-OH [LFBW3,14, H2N-Phe-Lys-Trp-Arg-Arg-Trp-Gln-Trp-Arg-Met-Lys-Lys-Leu-Trp-Ala-COOH] | – | 1.1 µM | >1000 µg/mL | 4.5 µM | – | – | 1.1 µM | MIC MRSA ([1]; Table 15, 14): 2.5 µg/mL; MIC MRSE ([5]; Table 15, 14): 2.5 µg/mL; MIC E. coli ([2]; Table 14): 10 µg/mL; MIC E. coli ([2]; Table 15, 14): 10.0 µg/mL; MIC S. aureus ([3]; Table 15, 14): 2.5 µg/mL |
| YRAWRWAWRWR-NH2 [LFB 17-27 A3,7 R2,11 W4,10 Y1 NH2] | – | – | – | 5.9 µM | 10.0 µg/mL | 2.5 µg/mL | 1.5 µM | MIC MRSE ([5]; Table 15): 2.5 µg/mL; MIC S. aureus ([3]; ATCC 25923): 1.5 µM |
